SMILES strings stand for the structures. Like-named read-outs stand apart in the source and are kept apart here.

One experiment concerns the target KCNQ2 (Homo sapiens, UniProt O43526). Briefly: TEVC of homomeric KCNQ2 expressed in Xenopus oocytes. The class given is cell-based. An excerpt: (§1) cRNA transcripts encoding human KCNA1, KCNQ1, KCNQ2, KCNQ3, KCNQ4, or KCNQ5 were generated by in vitro transcription using the T7 polymerase message machine kit (Thermo Fisher Scientific), after vector linearization, from cDNA sub-cloned into plasmids incorporating X. laevis β-globin 5′ and 3′ UTRs flanking the coding region to enhance translation and cRNA stability. cRNA was quantified by spectrophotometry. Mutant cDNAs were generated by site-directed mutagenesis using a QuikChange kit according to manufacturer's protocol (Stratagene, San Diego, Calif.) and corresponding cRNAs prepared as above. Defolliculated stage V and VI X. laevis oocytes (Ecocyte Bioscience, Austin, Tex.) were injected with Kv channel a subunit cRNAs (10 ng total per oocyte). Oocytes were incubated at 16° C. in Barth's saline solution (Ecocyte) containing penicillin and streptomycin, with daily washing, for 3-5 days prior to two-electrode voltage-clamp (TEVC) recording.
(§2) TEVC recording was performed at room temperature with an OC-725C amplifier (Warner Instruments, Hamden, Conn.) and pClamp10.2 software (Molecular Devices, Sunnyvale, Calif.) 3-5 days after cRNA injection as described in the section above. Oocytes were placed in a small-volume oocyte bath (Warner) and viewed with a dissection microscope. Chemicals were sourced from Sigma. Bath solution was (in mM): 96 NaCl, 4 KCl, 1 MgCl2, 1 CaCl2. 10 HEPES (pH 7.6). […] MTX (DMSO), sorbic acid (ethanol), and glutaconic acid (molecular grade H2O) were stored at −20° C. as 1 M stocks. Oleamide was stored as a 1 mM stock in ethanol at 4° C. Palmitic acid was conjugated with bovine serum albumin as a 1 mM stock and stored at −20° C. All compounds were diluted to working concentrations each experimental day. All compounds were introduced to the recording bath via gravity perfusion at a constant flow of 1 ml/min for 3 min prior to recording. Pipettes were of 1-2 MΩ resistance when filled with 3 M KCl. Currents were recorded in response to pulses between −80 and +40 mV at 20 mV intervals, or a single pulse to +40 mV, from a holding potential of −80 mV, to yield current-voltage relationships, current magnitude, and for quantifying activation rate. TEVC data analysis was performed with Clampfit10.2 (Molecular Devices) and Graphpad Prism software (GraphPad, San Diego, Calif., USA); values are stated as mean±SEM. Normalized tail currents were plotted versus prepulse voltage and fitted with a single Boltzmann function:
(§3) cRNA transcripts encoding human KCNQ2, KCNQ3, KCNQ4, KCNQ5 (Kv7.2-Kv7.5) were generated by in vitro transcription using the T7 polymerase mMessage mMachine kit (Thermo Fisher Scientific), after vector linearization, from cDNA sub-cloned into plasmids incorporating Xenopus laevis β-globin 5′ and 3′ UTRs flanking the coding region to enhance translation and cRNA stability. cRNA was quantified by spectrophotometry. Mutant KCNQ2 and KCNQ3 cDNAs were generated with site-directed mutagenesis using a QuikChange kit according to the manufacturer's protocol (Stratagene, San Diego, Calif.) and corresponding cRNAs prepared as above. Defolliculated stage V and VI Xenopus laevis oocytes (Ecocyte Bioscience, Austin, Tex.) were injected with KCNQ channel α subunit cRNAs (5-10 ng). The oocytes were incubated at 16° C. in Barth's saline solution (Ecocyte) containing penicillin and streptomycin, with daily washing, for 2-5 days prior to two-electrode voltage-clamp (TEVC) recording.
(§4) TEVC recording was performed at room temperature using a OC-725C amplifier (Warner Instruments, Hamden, Conn.) and pClamp8 software (Molecular Devices, Sunnyvale, Calif.) 2-5 days after cRNA injection as described in the section above. The oocytes were placed in a small-volume oocyte bath (Warner) and viewed with a dissection microscope. Unless otherwise stated, chemicals were sourced from Sigma. Bath solution was (in mM): 96 NaCl, 4 KCl, 1 MgCl2, 1 CaCl2, 10 HEPES (pH 7.6).

In another experiment the target is KCNQ3* (KCNQ3-A315T) (Homo sapiens, UniProt O43525, A315T). Description: TEVC of homomeric KCNQ3* expressed in Xenopus oocytes. The class given is cell-based.
From the text: as §1, §2, §3, §4

A further experiment concerns the target KCNQ4 (Homo sapiens, UniProt P56696). Briefly: TEVC of homomeric KCNQ4 expressed in Xenopus oocytes. The class given is cell-based.
From the text: as §1, §2, §3, §4

For experiment [1], the system named is pentylene tetrazole-induced seizures. Briefly: PTZ chemoconvulsant assay. In kind it is in vivo, mouse. Conditions: for clonic seizure incidence: alone. An excerpt:
We compared anticonvulsant activities of test compounds in male C57BL/6 mice (Charles River) aged 2-3 months. Mice were housed and used according to the recommendations in the Guide for the Care and Use of Laboratory Animals of the National Institutes of Health (NIH Publication, 8th edition, 2011). The study protocol was approved by the Institutional Animal Care and Use Committee of University of California, Irvine, which confirmed that all relevant ethical regulations were adhered to. Chemicals were sourced from Sigma (St. Louis, Mo., USA). A pentylene tetrazole (PTZ) chemoconvulsant assay was used-. […] Following the PTZ injection, mice were caged individually and an observer (GWA) blinded to the drug used recorded, over 20 min, clonic and tonic seizure incidence, and seizure-related mortality.
We quantified the anticonvulsant activities of (E)-2-dodecenal and tridecanal in male C57BL/6 mice (Charles River, Wilmington, Mass.) aged 2-3 months. The mice were housed and used according to the recommendations in the Guide for the Care and Use of Laboratory Animals of the National Institutes of Health (NIH Publication, 8th edition, 2011). The study protocol was approved by the Institutional Animal Care and Use Committee of University of California, Irvine. The chemicals were sourced from Sigma (St. Louis, Mo., USA). We used a pentylene tetrazole (PTZ) chemoconvulsant assay as we previously described (30). We injected the mice intraperitoneally with (E)-2-dodecenal (2 or 20 mgkg^−1) (with or without 2.5 mgkg^−1 XE991) or tridecanal (20 mgkg^−1) solubilized in PBS, or vehicle control (PBS), and then 30 minutes later we injected mice intraperitoneally with 80 mgkg-PTZ. Following the PTZ injection, the mice were caged individually and an observer (GWA) blinded to the experimental condition timed the latency to first seizure.
We compared anticonvulsant activities of 3FMSG in male C57BL/6 mice (Charles River) aged 2-3 months. Mice were housed and used according to the recommendations in the Guide for the Care and Use of Laboratory Animals of the National Institutes of Health (NIH Publication, 8th edition, 2011). The study protocol was approved by the Institutional Animal Care and Use Committee of University of California, Irvine, which confirmed that all relevant ethical regulations were adhered to. Chemicals were sourced from Sigma (St. Louis, Mo., USA). We used a pentylene tetrazole (PTZ) chemoconvulsant assay as we previously described^27. Mice were injected intraperitoneally with 3FMSG (5 mg kg^−1) or vehicle control (PBS) and then 30 minutes later injected intraperitoneally with 80 mg kg^−1 PTZ. Following the PTZ injection, mice were caged individually and an observer (GWA) blinded to the drug used recorded seizure activity over 20 minutes.

For the compound `CS(=O)(=O)N(CC(=O)O)c1cccc(F)c1` [3FMSG], on KCNQ2, the “effect of tenfold excess (100 μM) on KCNQ2 activation by 2FPG (10 μM)” value is recorded as “subtly reduced the efficacy” and the “effect on KCNQ2 (in words)” value is “negligible effects”. Besides, the “relative Na+ permeability of KCNQ3* compared to K+” value on KCNQ3* (KCNQ3-A315T) is given as “induces a similar increase in relative Na^+ permeability”. The EC50 at KCNQ3* (KCNQ3-A315T) (Example 4, read-out: EC50, ΔV0.5act of KCNQ3*) worked out at 0.018 ± 0.012 µM. Also, the “effect on KCNQ4 (in words)” value at KCNQ4 was “negligible effects”. In addition, the “incidence of PTZ-induced tonic seizures” value in experiment [1] (5 mg/kg i.p.) is recorded as “reduced by threefold”.
For `CCCCCCCCC/C=C/C=O` [(E)-2-dodecenal], the EC50 on KCNQ2 (read-out: EC50 of KCNQ2 activation by (E)-2-dodecenal) is 0.06 ± 0.01 µM. Also, the “effect on KCNQ3* (in words)” value at KCNQ3* (KCNQ3-A315T) is listed as “insensitive”. Further, the “latency to first PTZ-induced seizure” value in experiment [1] (2 mgkg−1 i.p.) is given as “threefold”; in experiment [1] (20 mgkg−1 i.p.) it was “> threefold”.
Consider `CC(=O)c1c(O)c(C)c(O)c(Cc2c(O)c3c(c(C(=O)/C=C/c4ccccc4)c2O)OC(C)(C)C=C3)c1O` [MTX, mallotoxin], for which, on KCNQ2 (MTX 30 μM), the “shift of midpoint voltage of KCNQ2 activation” value was −24 mV. For the same compound, the EC50 at KCNQ2 (−60 mV, read-out: EC50 of KCNQ2 activation) came to 6.4 µM; on KCNQ3* (KCNQ3-A315T) (−60 mV, read-out: EC50 of KCNQ3* activation), 13 µM; on KCNQ4 (−60 mV, read-out: EC50 of KCNQ4 activation) it was 20.2 µM. Moreover, the “shift of midpoint voltage of KCNQ3* activation” value at KCNQ3* (KCNQ3-A315T) (MTX 30 μM) was −9 mV. Besides, the “shift of midpoint voltage of KCNQ4 activation” value at KCNQ4 (MTX 30 μM) is given as −17 mV. Further, the figures for the clonic seizure incidence result in experiment [1] (10 mg/kg i.p.) and in experiment [1] (20 mg/kg i.p.) were “neither compound reduced clonic seizures alone” and “halved”, respectively. Also, in experiment [1] (individually), the “suppression of PTZ-induced tonic seizures” value is “ineffective”.
Regarding `NCC1(CC(=O)O)CCCCC1` [gabapentin, reference compound], the “effect on KCNQ2 (in words)” value on KCNQ2 is on record as “insensitive”. The “effect on KCNQ3* (in words)” value on KCNQ3* (KCNQ3-A315T) is reported as “activated”. In addition, at KCNQ3* (KCNQ3-A315T) (−60 mV), the “maximal fold increase in KCNQ3 current” value came out at 4 fold. In addition, on KCNQ3* (KCNQ3-A315T) (−60 mV, read-out: EC50 of KCNQ3* activation by gabapentin), the EC50 was 0.0053 µM. Further, the “effect on KCNQ4 (in words)” value on KCNQ4 is “insensitive”.
`NCC(=O)O` [glycine, reference compound]: the “effect on KCNQ2 (in words)” value on KCNQ2 is recorded as “unable to open”. Also, the “effect on KCNQ3* (in words)” value at KCNQ3* (KCNQ3-A315T) is “no effects”. The “effect on KCNQ4 (in words)” value at KCNQ4 is “unable to open”.

Source of the values: patent US12268683B2, “Compounds and methods for synergistic activation of M channels” (THE REGENTS OF THE UNIVERSITY OF CALIFORNIA, priority 2018, dated 2025).
